Results: ChEMBL document CHEMBL1141400, “Influence of conformation and intramolecular hydrogen bonding on the acyl glucuronidation and biliary excretion of acetylenic bis-dipyrrinones related to bilirubin” (J Med Chem, 2007)

System: Rattus norvegicus
Assay: Hepatobiliary metabolism in UGT1A1-deficient Gunn rat measured as biliary excretion at 0.25 mg, iv within 240 mins
Format: ADME, organism-based, Bile
Details: in vivo, 4 h

Question: Which Activity does the source give for `CCC1=C(C)C(=O)N/C1=C\c1[nH]c(C#Cc2[nH]c(/C=C3/NC(=O)C(C)=C3CC)c(C)c2CCC(=O)O)c(CCC(=O)O)c1C` here?
Answer: 93%
